ChEMBL document CHEMBL1671712, “Emergence of resistance among USA300 methicillin-resistant Staphylococcus aureus isolates causing invasive disease in the United States” (2010)

How the values were obtained:
Staphylococcus aureus [1] = test: Antimicrobial activity against Staphylococcus aureus USA300 isolate harboring pSK41 plasmid expressing tetK gene assessed resistant isolates; format: functional
Staphylococcus aureus [2] = test: Antimicrobial activity against Staphylococcus aureus USA300 isolate harboring pSK41 plasmid assessed resistant isolates; format: functional
Staphylococcus aureus [3] = test: Antimicrobial activity against Staphylococcus aureus USA300 isolate harboring pSK41 plasmid expressing aac'-aph'''' gene assessed resistant isolates; format: functional, organism-based
Staphylococcus aureus [4] = test: Antimicrobial activity against Staphylococcus aureus USA300 isolate harboring pSK41 plasmid expressing ermC gene assessed resistant isolates; format: functional

Molecule `CN(C)[C@@H]1C(O)=C(C(N)=O)C(=O)[C@@]2(O)C(O)=C3C(=O)c4c(O)cccc4[C@@](C)(O)[C@H]3C[C@@H]12` [TETRACYCLINE] has an Activity (Staphylococcus aureus [1]) of 8.4%.

With `Cc1onc(-c2ccccc2)c1C(=O)N[C@@H]1C(=O)N2[C@@H]1SC(C)(C)[C@@H]2C(=O)O` [OXACILLIN] the Activity (Staphylococcus aureus [2]) was 100%.

GENTAMICIN showed an Activity (Staphylococcus aureus [3]) of 1%.

In the case of `CC1(C)S[C@@H]2[C@H](NC(=O)Cc3ccccc3)C(=O)N2[C@H]1C(=O)O` [PENICILLIN G], the Activity (Staphylococcus aureus [2]) is reported as 100%.

With `CC[C@H]1OC(=O)[C@H](C)[C@@H](O[C@H]2C[C@@](C)(OC)[C@@H](O)[C@H](C)O2)[C@H](C)[C@@H](O[C@@H]2O[C@H](C)C[C@H](N(C)C)[C@H]2O)[C@](C)(O)C[C@@H](C)C(=O)[C@H](C)[C@@H](O)[C@]1(C)O` [ERYTHROMYCIN] the Activity (Staphylococcus aureus [2]) was 85%.

Work on `C[C@H]1COc2c(N3CCN(C)CC3)c(F)cc3c(=O)c(C(=O)O)cn1c23.C[C@H]1COc2c(N3CCN(C)CC3)c(F)cc3c(=O)c(C(=O)O)cn1c23.O` [LEVOFLOXACIN] yielded an Activity (Staphylococcus aureus [2]) of 45%.

Work on `CCC[C@@H]1C[C@@H](C(=O)N[C@@H]([C@H]2O[C@H](SC)[C@H](O)[C@@H](O)[C@H]2O)[C@H](C)Cl)N(C)C1` [CLINDAMYCIN] yielded an Activity (Staphylococcus aureus [4]) of 6.2%.
